Our source for the GI50 and TGI values is PubChem BioAssay (NCI).

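48-hour exposure; five concentrations; linearly interpolated endpoints. At the GI50, growth is halved. TGI: total growth inhibition.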

Among the test systems are OVCAR-4 ovarian; LOX IMVI melanoma; OVCAR-8 ovarian; UACC-62 melanoma; T-47D breast; NCI-H226 lung; UO-31 renal; K-562 leukemia.
What all share (assay): growth of human tumour cells (NCI), 48 h

Take `O=S1(=O)N(Cc2ccccc2)[C@@H](Cc2ccccc2)[C@H](O)[C@H](O)[C@H](Cc2ccccc2)N1Cc1ccccc1`: the GI50 was 2.72 µM in the assay on OVCAR-4 ovarian; 3.28 µM with LOX IMVI melanoma; 4.2 µM in the assay with OVCAR-8 ovarian; 2.86 µM in the assay with UACC-62 melanoma; 3.95 µM in the assay with T-47D breast; 3.04 µM with NCI-H226 lung. The GI50 in the assay with UO-31 renal was 2.73 µM; with K-562 leukemia, 3.05 µM. For the same compound, the TGI in the assay with OVCAR-4 ovarian is 7.26 µM; in the assay with LOX IMVI melanoma it was 7.09 µM; with OVCAR-8 ovarian, 11.2 µM; in the assay with UACC-62 melanoma, 6.4 µM; with T-47D breast it was 10.2 µM; in the assay with NCI-H226 lung, 6.17 µM. Besides, the TGI in the assay with UO-31 renal came to 5.96 µM; in the assay on K-562 leukemia, 9.38 µM.
Turning to `Cn1cccc1-c1cc(-c2ccccc2)[nH]c(=O)c1C#N`, the GI50 was more than 100 µM with OVCAR-4 ovarian; more than 100 µM in the assay with LOX IMVI melanoma; more than 100 µM in the assay on OVCAR-8 ovarian; 95 µM with UACC-62 melanoma; more than 100 µM in the assay with T-47D breast; more than 100 µM in the assay on NCI-H226 lung. For the same compound, the GI50 with UO-31 renal and in the assay on K-562 leukemia was more than 100 µM in each case. For the same compound, the TGI with OVCAR-4 ovarian, with LOX IMVI melanoma, in the assay with OVCAR-8 ovarian, in the assay on UACC-62 melanoma, in the assay on T-47D breast and in the assay on NCI-H226 lung was more than 100 µM in each case. The TGI in the assay on UO-31 renal and in the assay with K-562 leukemia was more than 100 µM in each case.
In the case of `Cc1ncc(C(=O)Nc2ccc(CN3CCN(C)CC3)c(C(F)(F)F)c2)cc1C#Cc1ccc(N)nc1`, the GI50 in the assay with OVCAR-4 ovarian was 0.122 µM; in the assay with LOX IMVI melanoma, 0.131 µM; in the assay with OVCAR-8 ovarian, 0.489 µM; with UACC-62 melanoma, 0.153 µM; in the assay on T-47D breast it was 1.08 µM; in the assay on NCI-H226 lung, 0.206 µM. Besides, the GI50 is 0.161 µM with UO-31 renal and 0.00333 µM in the assay with K-562 leukemia. In addition, the TGI is 3.74 µM in the assay with OVCAR-4 ovarian; 0.496 µM in the assay with LOX IMVI melanoma; 5.03 µM in the assay on OVCAR-8 ovarian; 0.854 µM with UACC-62 melanoma; 7.2 µM in the assay on T-47D breast; 1.66 µM in the assay on NCI-H226 lung. The TGI in the assay on UO-31 renal came to 0.793 µM; in the assay with K-562 leukemia it was 24.5 µM.
For the compound `O=C(/C=C/c1ccc(O)c(O)c1)NCc1c[nH]c2ccccc12`, the GI50 with OVCAR-4 ovarian was more than 100 µM; in the assay on LOX IMVI melanoma it was 60 µM; in the assay on OVCAR-8 ovarian, 56.6 µM; with UACC-62 melanoma it was 80.6 µM; in the assay on T-47D breast it was more than 100 µM; in the assay on NCI-H226 lung, 71.3 µM. The GI50 was 36.9 µM in the assay with UO-31 renal and 68.1 µM in the assay with K-562 leukemia. In addition, the TGI in the assay on OVCAR-4 ovarian, with LOX IMVI melanoma, with OVCAR-8 ovarian, in the assay with UACC-62 melanoma, in the assay with T-47D breast and in the assay on NCI-H226 lung was more than 100 µM each time. In addition, the TGI in the assay on UO-31 renal and in the assay with K-562 leukemia was more than 100 µM throughout.
For the compound `CCCn1cnc2c(SCC(=O)O)nc(N)nc21`, the TGI with OVCAR-4 ovarian, in the assay on LOX IMVI melanoma, in the assay with OVCAR-8 ovarian, with UACC-62 melanoma, in the assay with T-47D breast and with NCI-H226 lung was more than 100 µM in each case. In addition, the TGI in the assay with UO-31 renal and in the assay with K-562 leukemia was more than 100 µM throughout.
Consider `CSc1ncc(Br)c(Sc2nc(N)nc3nc[nH]c23)n1`, for which the GI50 in the assay with OVCAR-4 ovarian was 5.08 µM; with LOX IMVI melanoma it was 0.816 µM; in the assay with OVCAR-8 ovarian, 3.78 µM; in the assay on UACC-62 melanoma, 2.48 µM; in the assay on T-47D breast, 1.95 µM; in the assay on NCI-H226 lung it was 2.65 µM. In addition, the GI50 in the assay on UO-31 renal is 1.94 µM; in the assay on K-562 leukemia, 2.01 µM. For the same compound, the TGI in the assay with OVCAR-4 ovarian was more than 100 µM; in the assay with LOX IMVI melanoma, 17.7 µM; with OVCAR-8 ovarian, more than 100 µM; with UACC-62 melanoma it was 12.2 µM; in the assay with T-47D breast, 21.2 µM; with NCI-H226 lung, 29.5 µM. For the same compound, the TGI turned out to be 11.2 µM in the assay on UO-31 renal and 10.1 µM in the assay with K-562 leukemia.
For `COc1ccc(C(=O)c2cc3c(N)c(C(=O)Nc4ccccc4)sc3nc2C)cc1`, the GI50 in the assay on OVCAR-4 ovarian is 16.1 µM; in the assay with LOX IMVI melanoma it was 0.739 µM; with OVCAR-8 ovarian, 3.71 µM; with UACC-62 melanoma, 0.952 µM; in the assay on T-47D breast, 0.74 µM; in the assay with NCI-H226 lung, 11.1 µM. The values for the GI50 with UO-31 renal and in the assay on K-562 leukemia were 2.64 µM and 0.526 µM, respectively. In addition, the TGI with OVCAR-4 ovarian, in the assay with LOX IMVI melanoma, in the assay on OVCAR-8 ovarian, in the assay on UACC-62 melanoma, in the assay on T-47D breast and in the assay on NCI-H226 lung was more than 100 µM in each case. Further, the TGI with UO-31 renal and with K-562 leukemia was more than 100 µM throughout.
On to `CCOc1ccc2c(c1)C(=O)c1c-2n(CCCBr)c(=O)c2cc([N+](=O)[O-])ccc12`, for which the GI50 in the assay on OVCAR-4 ovarian is more than 100 µM; in the assay with LOX IMVI melanoma, 5.38 µM; in the assay on OVCAR-8 ovarian it was 4.8 µM; in the assay with UACC-62 melanoma, 5.73 µM; in the assay on T-47D breast, 0.55 µM; in the assay with NCI-H226 lung, 5.64 µM. For the same compound, the GI50 with UO-31 renal is 2.9 µM; in the assay with K-562 leukemia, 50.9 µM. Also, the TGI was more than 100 µM in the assay on OVCAR-4 ovarian; more than 100 µM in the assay on LOX IMVI melanoma; more than 100 µM with OVCAR-8 ovarian; more than 100 µM with UACC-62 melanoma; 9.12 µM with T-47D breast; more than 100 µM in the assay with NCI-H226 lung. In addition, the results for the TGI in the assay on UO-31 renal and in the assay on K-562 leukemia were 13.6 µM and more than 100 µM, respectively.
As to `O=C(O)/C=C\C(=O)Nc1ccccn1`, the TGI with OVCAR-4 ovarian, in the assay with LOX IMVI melanoma, with OVCAR-8 ovarian, in the assay with UACC-62 melanoma, with T-47D breast and in the assay with NCI-H226 lung was more than 100 µM each time. Further, the TGI with UO-31 renal and in the assay on K-562 leukemia was more than 100 µM throughout.
